In patent US6475790B2, “Assay for screening agents that alter angiogenesis” (Biocure Limited, priority 1997, dated 2002) one finds tubule formation data, which are given here for one substance.

“Also recorded” adds a separate entry of the source.

This assay relates to co-culture of Human Umbilical Vein Endothelial Cells (HUVEC) with Human Adult Dermal Fibroblasts. Nature of the assay: multicellular in vitro angiogenesis (tubule) assay, dual culture of HUVEC and fibroblasts. The settings on record: VEGF 10 ngml^-1 added at the start and at each medium change; 14 days; von Willebrand factor immunoassay. It is filed as cell-based. The source says: The assay system involves co-culture of Human Umbilical Vein Endothelial Cells (HUVEC) with Human Adult Dermal Fibroblasts. Under the conditions provided the cells form a series of anastomosed tubules.
The Human Umbilical Vein Endothelial Cells (HUVEC) are commercially available from suitable outlets and in this case are bought in cryopreserved form. Prior to employment in the tubule assay, the cells are routinely passed and cultured in any suitable commercially available Endothelial Growth Medium, EGM, containing 2% foetal calf serum. The HUVEC are used at passes 2 to 6 in the assay.
The Human Adult Dermal Fibroblasts are cultured from skin samples which may be obtained from local hospitals. […]
The tissue culture treated vessels to be used in the assay are equilibrated by pre-incubation with EGM, plus and minus treatments, for a period of 30 minutes at 37° C., 5% CO2 humidified atmosphere. […] The cells are resuspended in EGM and counted. […] The techniques and materials involved in culturing endothelial cells are well known to persons of skill in the art, and are readily available from standard texts. […]
Visualization of the tubules is accomplished most readily by an immunoassay that targets a cell marker on one or both of the cells being cultured. […]

In the case of VEGF, the tubule formation result is “marked increase; also recorded: much enhanced”.
